Where two headings read alike, the source gives them in different places.
Columns and labels:
human recombinant COX-2 = target: T1, human recombinant COX-2 (Homo sapiens, UniProt P35354); experiment: COX-2 oxygenation of 2-AG, oxygen electrode; type: biochemical; details: for COX-2 activity (% of control): substrate 2-AG 10 µM, initial activity 10-30 s, n = 3
T1 construct: purchased Cayman Chemical Co. 60122
T1 sequence (P35354 18-604): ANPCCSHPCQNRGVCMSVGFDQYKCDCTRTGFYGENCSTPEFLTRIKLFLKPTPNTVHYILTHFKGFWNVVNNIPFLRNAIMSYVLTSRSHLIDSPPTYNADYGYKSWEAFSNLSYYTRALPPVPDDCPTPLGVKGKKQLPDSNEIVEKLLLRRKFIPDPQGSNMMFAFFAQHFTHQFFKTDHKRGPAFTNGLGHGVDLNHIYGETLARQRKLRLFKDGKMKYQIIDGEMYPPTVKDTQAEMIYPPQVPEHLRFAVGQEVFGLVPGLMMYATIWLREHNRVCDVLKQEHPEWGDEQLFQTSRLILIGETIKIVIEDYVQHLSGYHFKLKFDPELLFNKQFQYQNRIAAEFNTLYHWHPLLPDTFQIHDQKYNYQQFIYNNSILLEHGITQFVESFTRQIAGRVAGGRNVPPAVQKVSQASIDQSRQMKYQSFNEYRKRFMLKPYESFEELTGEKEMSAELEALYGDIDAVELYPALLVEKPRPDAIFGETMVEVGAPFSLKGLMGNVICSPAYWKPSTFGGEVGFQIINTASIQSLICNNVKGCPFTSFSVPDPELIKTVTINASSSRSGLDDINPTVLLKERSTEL
Method: The assay was performed according to Meade et al. with minor modifications using an oxygen electrode chamber with integral stirring (Oxygraph System, Hansatech Instruments, King’s Lynn, U.K.). The electrode was calibrated to ambient temperature and air pressure. Samples were prepared in 0.1 M Tris-HCl buffer pH 7.4 containing 1 µM haematin, 2 mM phenol, 5 mM EDTA, 10 µM substrate (AA or 2-AG) (final assay volume was 2 ml). After addition of test substance dissolved in DMSO (final assay concentration 1%) a baseline was established for 5 min before initiation of reaction by addition of 200 units COX-1 or COX-2. Change in oxygen consumption was monitored for approximately 5 min.
(§1) FAAH inhibition was calculated using log(inhibitor) vs. response with variable slope (four parameters) algorithm in the GraphPad Prism computer program (GraphPad Software Inc., San Diego, CA. USA). […] The two curves were compared by Akaike’s informative criteria and the best fit was chosen. Initial COX activities were calculated as the change in oxygen tension between 10 and 30 seconds after addition of enzyme.

rat brain FAAH = target: T2, rat brain FAAH (Rattus norvegicus, UniProt P97612); experiment: FAAH hydrolysis of [3H]AEA in rat brain homogenates; type: biochemical; details: 0.5 µM AEA
T2 construct: FAAH activity was quantified by measuring hydrolysis of tritium labelled AEA in rat brain homogenates; from tissue; host or cells: rat brain (minus cerebella), Wistar or Sprague-Dawley, washed membrane pellets
T2 sequence (P97612 1-579): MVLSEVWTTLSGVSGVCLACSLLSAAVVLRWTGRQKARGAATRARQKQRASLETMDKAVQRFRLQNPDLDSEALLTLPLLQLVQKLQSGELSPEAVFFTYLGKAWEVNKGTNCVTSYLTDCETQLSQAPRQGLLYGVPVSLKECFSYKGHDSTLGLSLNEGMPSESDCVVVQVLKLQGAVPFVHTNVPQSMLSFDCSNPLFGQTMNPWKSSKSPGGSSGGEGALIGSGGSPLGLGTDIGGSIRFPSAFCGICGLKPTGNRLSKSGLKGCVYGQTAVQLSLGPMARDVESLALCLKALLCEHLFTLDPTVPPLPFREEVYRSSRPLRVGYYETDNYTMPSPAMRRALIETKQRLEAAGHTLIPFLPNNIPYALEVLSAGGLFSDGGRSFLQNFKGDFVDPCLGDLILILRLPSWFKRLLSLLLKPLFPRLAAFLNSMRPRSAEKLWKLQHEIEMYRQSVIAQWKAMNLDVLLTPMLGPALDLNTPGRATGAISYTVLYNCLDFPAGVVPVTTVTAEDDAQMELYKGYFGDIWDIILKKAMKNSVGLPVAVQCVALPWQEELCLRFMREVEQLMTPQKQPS
Method: Brains (minus cerebella) from adult Wistar or Sprague-Dawley stored at −80°C were thawed, weighed and homogenized in cold buffer (20 mM HEPES, 1 mM MgCl2 pH 7.0). Homogenates were centrifuged at 35,000 g at 4°C for 20 min and the pellet was resuspended in homogenization buffer (repeated twice) before being incubated at 37°C for 15 min to degrade any endogenous substrate that might interfere with the FAAH assay. Following centrifugation, the pellets were resuspended in cold buffer (50 mM Tris-HCl, 1 mM EDTA, 3 mM MgCl2, pH 7.4). The protein concentration of each homogenates was determined according to the Bradford assay after which the samples were frozen in aliquots at −80°C until used for FAAH assay. Ethical permission for the animal experiments was obtained from the local animal research ethical committee (Umeå Ethical Committee for Animal Research, Umeå, Sweden).
The assay was performed according to Boldrup et al.. Homogenates (1 µg protein per assay) diluted in 10 mM Tris-HCl, 1 mM EDTA, pH 7.4 or pH 5.1 were mixed with test substance dissolved in DMSO (total concentration in assay 5%) at an ambient temperature of 4°C. Reactions were initiated by addition of AEA-[^3H] (assay concentration 0.5 µM) in 10 mM Tris-HCl, 1 mM EDTA, pH 7.4 containing 10 mg ml^−1 fatty acid-free bovine serum and incubation at 37°C which was allowed to proceed for 10 min. […] Blank samples contained buffer instead of homogenate and DMSO (5%). The assay volume of each sample was 200 µl. The pH values given in the text were determined by measurement at 37°C of scaled-up mixtures of homogenization and assay buffers. The reaction was terminated by addition of 400 µl activated charcoal (80 µl activated charcoal +320 µl 0.5 M HCl) and placement of samples on ice. Samples were kept in room temperature for 45–60 min before being centrifuged at 2500 rpm for 10 min. Aliquots (200 µl) of the supernatant was analyzed for tritium content by liquid scintillation with quench correction.
as §1

[1] = cited from earlier work
[2] = pH 6.0, read-out: IC50, inhibition of [3H]AEA hydrolysis (converted)
[3] = pH 6.0, read-out: pI50, inhibition of [3H]AEA hydrolysis (converted)
[4] = pH 7.3, read-out: IC50, inhibition of [3H]AEA hydrolysis (converted)
[5] = pH 7.3, read-out: pI50, inhibition of [3H]AEA hydrolysis (converted)

COX-2 activity (% of control) (human recombinant COX-2; 100 µM NSAID)	COX-2 activity (% of control) (human recombinant COX-2; 300 µM NSAID)	IC50 (rat brain FAAH; [2])	IC50 (rat brain FAAH; [3])	inhibition at 1000 µM (rat brain FAAH; read-out: % inhibition of [3H]AEA hydrolysis @ 1000 µM, pH 7.3, 1000 µM compound)	IC50 (rat brain FAAH; [4])	IC50 (rat brain FAAH; [5])	COX-2 activity (% of control) (human recombinant COX-2; 30 µM NSAID)	inhibition of cyclooxygenation of 2-AG (human recombinant COX-2; 30 µM compound)	inhibition of cyclooxygenation of 2-AG (human recombinant COX-2; 100 µM compound)	inhibition of cyclooxygenation of 2-AG (human recombinant COX-2; 300 µM compound)	SMILES	urinary recovery ([1]; 24 h after administration of 400 mg of ibuprofen)	inhibition of COX-2-catalysed oxygenation of 2-AG at longer incubation times (human recombinant COX-2; lower potency than the parent compound, initial inhibition (10-30 s) only modestly affected)	share of the dose recovered in the urine ([1]; flurbiprofen 50 mg a day for 10 consecutive days)
125±24 % of control	115±21 % of control	380 µM	380 µM	15 ± 7%	–	–	–	–	–	–	CC(C(=O)O)c1ccc(CC(C)(C)O)cc1 (stereo not drawn) [2′-OH-Ibuprofen, 2-[4-(2-hydroxy-2-methylpropyl)phenyl]propionic acid]	23%	–	–
73±14 % of control	91±2 % of control	200 µM	200 µM	–	990 µM	977 µM	–	–	–	–	CC(CO)Cc1ccc(C(C)C(=O)O)cc1 (stereo not drawn) [3′-OH-Ibuprofen, 2-[4-(3-hydroxy-2-methylpropyl)phenyl]propionic acid]	–	retained the ability of ibuprofen to inhibit	–
24±4 % of control	−6±9 % of control	84 µM	85.1 µM	–	310 µM	316 µM	39±11 % of control	partially	partially	completely	CC(C(=O)O)c1ccc(-c2ccc(O)cc2)c(F)c1 (stereo not drawn) [4′-OH-Flurbiprofen]	–	–	43%

Source: publication PMC4111603 (PLoS ONE, 2014)
